Reference: patent US20140206028A1, “Stable Electrically Active Neurons from Adult Tissue” (University of Central Florida Research Foundation, Inc., priority 2011, published 2014)

Tests used:
Assay type in all cases: cell-based
[1] = system: adult rat hippocampal neurons on MEAs; assay: MEA recording of spontaneous activity, adult hippocampal neurons; details: adult cultures
Description: Adult neurons were extracted, dissociated, cultured, and maintained. Briefly, the hippocampi of adult rats (Charles River, age 6-12 months) were dissected and homogenized into small tissue fragments in cold medium (˜4° C.) consisting of Hibernate-A, glutamax, and antibiotic-antimycotic. The tissue was digested for 30 minutes at 37° C. in calcium-free Hibernate-A (HA) containing 6 mg papain/12 ml (HA no calcium). Following digestion, the tissue was washed three times with cold HA media to remove any active enzyme. Next, the tissue was suspended in Dissociation Medium and broken apart into individual cells through mechanical dissociation with fire-polished Pasteur pipettes. The dissociated cells were suspended in Plating medium and then deposited onto DETA (N-1 [3-(trimethoxysilyl) propyl]-diethylenetriamine, United Chemical Technologies Inc., Bristol, Pa., T2910KG) coated glass cover slips. After 30-45 minutes, the cover slips were washed with warm HA by gently swirling the medium to remove tissue debris. Following this washing step, fresh Plating medium was applied and remained for the first 3 div. On 3 div the medium was removed and replaced by Maintenance Medium with 5 μM Roscovitine (Rosc, Sigma, R7772). All research was approved by the Institutional Animal Care and Use Committee at the University of Central Florida and conformed to NIH guidelines. After 4 div, the adult hippocampal neurons on the DETA cover slips were passaged to MEAs. Briefly, neurons were dislodged from the DETA with trypsin (0.05% trypsin/EDTA in HBSS, Gibco, 25200). Trypsin inhibitor (trypsin inhibitor, soybean, Gibco, 17075-029) in Dissociation medium at 0.5 mg per ml deactivated the trypsin. The dislodged neurons were collected and spun at 500×g for 5 minutes. The supernatant of deactivated trypsin in HBSS was discarded, and the neuronal cell pellet was suspended in 1 ml Plating medium. Immunocytochemistry and Laser Scanning Confocal Microscopy
(§1) The MEA chips (Axion Biosystems) provided 64 platinum-black coated gold-electrodes with a diameter of 30 μm, organized in an 8 by 8 array with 200 μm pitch. Clean MEAs were sterilized with 70% alcohol and then incubated with 1 ml poly-L-lysine (100 μg/ml) for 30 minutes. An area just large enough to cover all electrodes was additionally coated with 3 μl laminin (2 μg/ml) over night. Embryonic rat hippocampal neurons were plated directly on MEAs at a density of 500 cells/mm2. Adult rat hippocampal neurons were first cultured on DETA coated cover slips for recovery. […] After 4 days on DETA cover slips, the adult neurons were passaged onto MEAs at a density of 500 cells/mm2. Every 2-3 days, half the medium was replaced with fresh Maintenance medium supplemented with 2 μM Rosc.
(§2) MEAs were incubated with their covers off to allow gas exchange but covered upon removal from the incubator to reduce contamination, media evaporation, and gas exchange while recordings were taken. The head stage of the recording system (Axion Biosystems) was pre-heated to 37° C. before MEAs with adult or embryonic hippocampal cultures were investigated. The activity of neuronal networks was recorded with 25 kHz using the software Axion's Integrated Studio (AxIS). Signal amplitudes 6 times larger than the standard deviation of the base line were detected as action-potential spikes. The spike data was then imported into Matlab 2010b (The MathWorks) for further processing.
Baseline spontaneous activity in adult and embryonic neurons was recorded for 3 minutes on 5 consecutive days per week, starting on 7 div. The synaptic antagonists D-(−)-2-Amino-5-phosphonopentanoic acid (D-APS, 25 μM, Tocris Bioscience, 0106), 6-Cyano-7-nitroquinoxaline-2,3-dione disodium (CNQX, 25 μM, Tocris Bioscience, 1045), and (−)-Bicuculline methobromide (Bicuculline, 50 μM, Tocris Bioscience, 0109) were separately administered to both adult and embryonic neurons on 14 div and at various time points between 30 and 60 div. […]

[2] = system: embryonic rat hippocampal neurons on MEAs; assay: MEA recording of spontaneous activity, embryonic hippocampal neurons; details: embryonic cultures
Description: Embryonic hippocampal neurons were cultured. Pregnant rats, 18 days in gestation, obtained from Charles River were euthanized with carbon dioxide and the fetuses were collected in ice-cold Hibernate E (BrainBits)/B27/Glutamaxtm/Antibiotic-antimycotic (Invitrogen) (Dissecting Medium). Each fetus was decapitated, and the whole brain was transferred to fresh ice cold dissecting medium. After isolation, the hippocampi were collected in a fresh tube of dissecting medium. The tissue was enzymatically digested at 37° C. for 10 minutes with papain (Worthington 3119), 12 mg/6 ml Hibernate-E (-calcium) (BrainBits)+0.5 mM Glutamax (Invitrogen). Hippocampal neurons were obtained by triturating the tissue using a fire-polished Pasteur pipette. After centrifugation, the cells were re-suspended in culture medium (Neurobasal/B27/Glutamaxtm/antibiotic-antimycotic) and plated on MEAs. All research was approved by the Institutional Animal Care and Use Committee at the University of Central Florida and conformed to NIH guidelines.
as §1, §2
Baseline spontaneous activity in adult and embryonic neurons was recorded for 3 minutes on 5 consecutive days per week, starting on 7 div. The synaptic antagonists D-(−)-2-Amino-5-phosphonopentanoic acid (D-APS, 25 μM, Tocris Bioscience, 0106), 6-Cyano-7-nitroquinoxaline-2,3-dione disodium (CNQX, 25 μM, Tocris Bioscience, 1045), and (−)-Bicuculline methobromide (Bicuculline, 50 μM, Tocris Bioscience, 0109) were separately administered to both adult and embryonic neurons on 14 div and at various time points between 30 and 60 div. Three minute recordings were made to quantify the effect from these antagonists on spontaneous activity. If necessary, additional baselines were recorded prior to the administration of antagonists. Each experiment was followed by a complete washout of the antagonist and replacement with fresh medium.
Data analysis was performed off-line using unpublished Matlab functions to evaluate spike files created during each MEA recording. […] In about 25% of the adult cultures and 14% of the embryonic cultures, portions of the neuronal networks detached from the substrate over time and especially after about 6 weeks. In order to accommodate the different numbers of active channels between MEAs, all values were corrected for the amount of active channels on an MEA. […]

[3] = system: adult rat hippocampal neurons; assay: Control of neuronal division in dissociated adult rat hippocampal neuron culture (cell population, neurite length, marker expression); details: for elimination of division of cultured neurons by mitotic inhibitors: added to culture medium on 2 DIV, FudR 10 and 50 μM; for neuronal division after addition to the culture medium: roscovitine added to the culture medium (at 3 div in MEA work)
Description: The hippocampi of adult rats (Charles River, age 6-12 months) were dissected and homogenized into small tissue fragments in cold medium (˜4° C.) consisting of Hibernate-A, Glutamax, and antibiotic-antimycotic. The tissue was then digested for 30 minutes at 37° C. in calcium-free Hibernate-A (HA) containing 6 mg papain/12 ml (HA). Following digestion, the tissue was washed three times with cold Hibernate-A media to remove any active enzyme. Next, the tissue was suspended in Dissociation Media (Table 1), formulated for dissociation of rat and mouse adult brain tissue into individual cells and dissociated into individual cells through mechanical dissociation with fire-polished Pasteur pipettes. The dissociated cells were suspended in Plating Media (Table 1), used after tissue dissociation to promote neuronal attachment and regeneration, and then deposited onto DETA-coated glass cover slips for 30-45 minutes. DETA, with its triamine functional group exposed at the surface, strongly attaches to neurons and allows for all non-neuronal debris such as ECM proteins, myelin debris, and cell fragments to be washed from the cover slip surface (D. A. Stenger et al., 1993; J. J. Hickman et al., 1994; M. Das et al., 2005; A. E. Schaffner et al., 1995). Following this washing step, fresh Plating medium was applied and remained for the first 3 DIV. On 3 DIV and every fourth subsequent day, one half of the medium was removed and replaced with Maintenance Media (FIG. 1, Table 1), supporting the long-term maintenance of these neurons. […] The osmolarity of the media was adjusted to match the osmolarity of adult rat cerebrospinal fluid (295-305 mOsm) (S. C. Baraban et al., 1997; R. A. Fishman and G. D. Silverberg, 2002). In the Dissociation Medium (Table 1), the use of caspase inhibitors and antioxidants (M. Das et al., 2007) during the dissociation of the tissue minimized both oxidative damage as well as the progression into apoptosis which normally results from cellular damage during this stage. […] For long-term survival, the anti-oxidants were removed from the Maintenance Medium (Table 1).
After neuronal confluence, 25 μM glutamate ((N-Acetyl-L-glutamic acid, Aldrich, 855642) triggers induction of neuronal electrical recovery (D. Edwards et al., 2010). Control of the division of neurons in this culture system was investigated experimentally as follows: (1) bFGF removal from both the Plating and Maintenance medium. (2) Fluorodeoxyuridine (FudR, Sigma-Aldrich, F-0503) addition at 10 and 50 μM (3) arabinoside-D (ara-C, Sigma, C-6645) plus deoxycytidine addition. (4) Trolox (Sigma, 238813) addition at 40 and 100 μM. (5) Aphidicolin (Aph, Sigma, A0781) addition at 1.5 μM. (6) Roscovitine (Rosc, Sigma, R7772) addition at 1, 5, and 10 μM. All factors were added before the onset of neuronal division (2 DIV), some after the onset of division (after 3 DIV).
To prepare cells for immunocytochemical characterization, cover slips were rinsed twice with Phosphate Buffered Saline (PBS). Cells were fixed with 4% paraformaldehyde for ten minutes at room temperature, and subsequently rinsed three times with PBS. Cells were permeabilized for five min in PBS with 5 mM Lysine and 0.5% Triton X-100, and were then blocked for two hours by adding 5% normal donkey serum. Anti-Neurofilament-M polyclonal antibody (Nf-M, intracellular filament found in mature neurons, Chemicon, AB 1981, diluted 1:1000), anti-NeuN (nuclear marker in mature neurons, Chemicon, diluted 1:1000), anti-Ki-67 (nuclear marker in dividing cells, Chemicon, diluted 1:1000), anti-NR2A (NMDA channel subunit expressed in the post-synaptic cell membrane, AB1548, diluted 1:75), anti-NR2B (NMDA channel subunit expressed in the post-synaptic cell membrane, MAB5216, diluted 1:150) were added in blocking solution for 12 hr at 4° C. After 3 washes with PBS, fluorescently labeled secondary antibodies (Invitrogen, A1011, A21449, and A11029) were applied for two hours. […]

Q: What does the source list for `N#Cc1cc2c(cc1[N+](=O)[O-])=NC(=O)C(=O)N=2.[Na].[Na]` [CNQX, 6-Cyano-7-nitroquinoxaline-2,3-dione disodium]?
A: change in action potential frequency ([1]; 25 μM CNQX, 14 div): not affected; loss of channel activity (active channels) versus baseline ([1]; 25 μM antagonist, 14 div): 52±3%; loss of channel activity (active channels) versus baseline ([1]; 25 μM antagonist, 30-60 div): 24±5%; lowering (drop) of action potential frequency versus baseline ([1]; 25 μM antagonist, 30-60 div): 31±6%; change in action potential frequency ([2]; 25 μM CNQX, 14 div): not affected; loss of channel activity (active channels) versus baseline ([2]; 25 μM antagonist, 14 div): 23±5%; decrease (drop) of firing rate versus baseline ([2]; 25 μM antagonist, 30-60 div): 47±5%; loss of channel activity (active channels) versus baseline ([2]; 25 μM antagonist, 30-60 div): 0±7%

Q: `O=c1[nH]c(=O)n([C@H]2C[C@H](O)[C@@H](CO)O2)cc1F` [FudR, Fluorodeoxyuridine] was tested. Which “elimination of division of cultured neurons by mitotic inhibitors” value [3] did it give?
A: all dividing cells were forced into apoptosis

Q: How did the “prevention of return of primary neurons to the cell cycle” value ([3]; Trolox 40 and 100 μM, 2 DIV) turn out when `Cc1c(C)c2c(c(C)c1O)CCC(C)(C(=O)O)O2` (stereo not drawn) [Trolox] was run?
A: not effective

Q: And the “neuronal survival (antioxidant activity)” value ([3]; Trolox in culture medium)?
A: improve neuronal survival

Q: With `C[C@@]1(CO)[C@H](O)CC[C@@]2(C)[C@H]1CC[C@H]1C[C@@H]3C[C@@]12CC[C@]3(O)CO` [aphidicolin, Aphidicolin] as the compound, how does the “regeneration of surviving neurons” value ([3]; aphidicolin 1.5 μM, 2 DIV) read?
A: limited regeneration of neurites and functional electrical properties

Q: And the “survival of cultured neurons” value ([3]; aphidicolin 1.5 μM, 2 DIV)?
A: caused most cultured neurons to either necrose or apoptose

Q: How did the “elimination of division of cultured neurons by mitotic inhibitors” value [3] turn out when `Nc1ccn([C@@H]2O[C@H](CO)[C@@H](O)[C@@H]2O)c(=O)n1` [ara-C, arabinoside-D] was run?
A: all dividing cells were forced into apoptosis

Q: `CC[C@H](CO)Nc1nc(NCc2ccccc2)c2ncn(C(C)C)c2n1` [roscovitine] was tested. Which neuronal cell population ([3]; 1 μM roscovitine applied on day 2, bFGF in medium) did it give?
A: the cell population increased more slowly than without roscovitine

Q: And the “extension of primary axons versus untreated control neurons” value ([3]; 5 μM roscovitine days 2-7, 2 μM after day 7, on average)?
A: 4-5 times longer

Q: And the neuronal cell population ([3]; 5 μM roscovitine on days 2-7 in vitro and 2 μM after day 7)?
A: A stable population of neurons was achieved

Q: And the neuronal cell population ([3]; 5 μM roscovitine on days 2-7 in vitro and 2 μM after day 7, listed as Rosc)?
A: stable in vitro

Q: What about the neuronal cell population ([3]; 10 μM roscovitine applied on day 2) of the same compound?
A: caused a decrease in the neuronal population

Q: And the neuronal cell population ([3]; 10 μM roscovitine introduced on day 7)?
A: a sharp loss of neurons

Q: What about the “neuronal division after addition to the culture medium” value [3] of the same compound?
A: neurons no longer divided

Q: And the “neuronal division after addition to the culture medium” value ([3]; listed as Roscovitine)?
A: prevented neuronal mitotic activity

Q: And the “expression of neuronal and proliferation markers (MAP2, NeuN, Ki-67)” value ([3]; roscovitine treated, non-proliferating neurons, immunocytochemistry)?
A: expressed the mature neuronal markers MAP2 and NeuN, but lacked expression for the nuclear marker of proliferating cells, Ki-67

Q: Which neuronal cell proliferation ([3]; bFGF 5 ng/ml in medium) does the source give for “bFGF: basic fibroblast growth factor (Invitrogen, 13256-029)” here?
A: triggered neuronal cell proliferation until confluence
